Measurements taken from patent US8288512B2, “Use of amphiphilic self-assembling proteins for formulating poorly water-soluble effect substances” (BASF SE, priority 2006, dated 2012).
Converted amounts (≈) assume the structure as drawn. Read-outs that look alike come from different tables or passages of the source.

How the values were obtained:
[1] = cited from earlier work
[2] = Packing of metazachlor in C16 protein microbeads, active substance distribution (photometric at 215 nm); format: physicochemical
Description: 500 μl of a 10 mg/ml C16 protein-comprising potassium phosphate solution (5 mM, pH 8.0) were mixed with 100 μl of a metazachlor solution (50 mg/ml in isopropanol). C16 Protein microbead formation was induced by adding 1 ml of 1 M potassium phosphate buffer (pH 8.0). The mixture was incubated for 1 h at room temperature and then centrifuged for 10 min at 20000×g. The pellet was washed twice with 5 ml of double-distilled H2O and then lyophilized. An identical mixture without C16 protein was carried out as control.
In each case, about 20% of the active substance were present in the wash supernatants.
(§1) Analysis of the Active Substance Distribution (Photometric Determination at λ=215 nm)

proteinase K = proteinase K (Parengyodontium album, UniProt P06873); experiment: Release of metazachlor from C16 protein microbeads by proteinase K digestion
proteinase K, sequence (P06873 106-384): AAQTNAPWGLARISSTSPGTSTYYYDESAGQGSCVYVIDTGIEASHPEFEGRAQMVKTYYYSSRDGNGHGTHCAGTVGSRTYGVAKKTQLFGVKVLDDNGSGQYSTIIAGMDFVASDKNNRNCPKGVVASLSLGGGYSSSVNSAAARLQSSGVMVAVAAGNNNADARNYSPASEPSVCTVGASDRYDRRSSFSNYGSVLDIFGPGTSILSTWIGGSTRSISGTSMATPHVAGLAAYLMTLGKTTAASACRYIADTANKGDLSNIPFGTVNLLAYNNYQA
Description: The lyophilized metazachlor-comprising C16 protein microbeads were proteolytically digested in 1 ml of 10 mM Tris buffer; 0.1% SDS; 100 μg of proteinase K for 1 h at 37° C. The active substance crystals remaining from the mixture after centrifugation for 10 minutes (20000×g) were dissolved in 500 μl of isopropanol. About 11% of the amount of metazachlor used was detected in the supernatant of the protease digestion. The active substance crystals redissolved in isopropanol constituted about 35% of the amount of metazachlor used.
as §1

[3] = of the amount of metazachlor used
[4] = proteinase K, 1 h, 37° C., 5.0 mg metazachlor used

NC(=O)N1c2ccccc2C=Cc2ccccc21 [Carbamazipine]
Solubility in water ([1]; RT): 945.1 µg/mL (≈ 4000 µM)

Clc1ccccc1C(c1ccccc1)(c1ccccc1)n1ccnc1 [Clotrimazole]
Solubility in water ([1]; 25° C.): <10 µg/mL

Cc1cccc(C)c1N(Cn1cccn1)C(=O)CCl [metazachlor]
Crystal formation after potassium phosphate precipitation ([2]; mixture with C16 protein): no metazachlor crystals were visible | Crystal formation after potassium phosphate precipitation ([2]; mixture without C16 protein): large active substance crystals were formed | Active substance crystals redissolved in isopropanol (proteinase K; [3]): about 35% | Metazachlor detected in the supernatant of the protease digestion (proteinase K; [3]): About 11% | Amount of substance, pellet after digestion in isopropanol (proteinase K; [4]): 1.74 mg | Amount of substance, supernatant after protease digestion (proteinase K; [4]): 0.55 mg

B1: C16 protein: synthetic spider silk protein with the polypeptide sequence shown in SEQ ID NO: 1 (protein)
chain: MASMTGGQQMGRGSMGSSAAAAAAAASGPGGYGPENQGPSGPGGYGPGGPGSSAAAAAAAASGPGGYGPENQGPSGPGGYGPGGPGSSAAAAAAAASGPGGYGPENQGPSGPGGYGPGGPGSSAAAAAAAASGPGGYGPENQGPSGPGGYGPGGPGSSAAAAAAAASGPGGYGPENQGPSGPGGYGPGGPGSSAAAAAAAASGPGGYGPENQGPSGPGGYGPGGPGSSAAAAAAAASGPGGYGPENQGPSGPGGYGPGGPGSSAAAAAAAASGPGGYGPENQGPSGPGGYGPGGPGSSAAAAAAAASGPGGYGPENQGPSGPGGYGPGGPGSSAAAAAAAASGPGGYGPENQGPSGPGGYGPGGPGSSAAAAAAAASGPGGYGPENQGPSGPGGYGPGGPGSSAAAAAAAASGPGGYGPENQGPSGPGGYGPGGPGSSAAAAAAAASGPGGYGPENQGPSGPGGYGPGGPGSSAAAAAAAASGPGGYGPENQGPSGPGGYGPGGPGSSAAAAAAAASGPGGYGPENQGPSGPGGYGPGGPGSSAAAAAAAASGPGGYGPENQGPSGPGGYGPGGPG
modifications: Synthetic spider silk C16 protein
Effect on the crystallization of metazachlor ([2]; in the presence of aqueous potassium phosphate buffer): significant inhibitiory effect
